From paper PMC7822874, “Chemoprotective antimalarials identified through quantitative high-throughput screening of Plasmodium blood and liver stage parasites” (Scientific Reports, 2021)
Entries after “also recorded” stand apart in the source; their conditions may differ. Where two headings read alike, the source gives them in different places.

Experiments:
[1] = Aqueous solubility; format: physicochemical; details: for solubility: aqueous media
Method: (§1) Pharmacokinetic modeling experiments, parallel artificial membrane permeability assay (PAMPA), solubility, and rat liver microsome stability assessment were performed on all synthetic compounds, as previously described[73]–[75].

[2] = Rat liver microsomal stability (RLMS); details: rat liver microsomes; for half-life: rat
Method: as §1

[3] = system: P. falciparum Dd2 (clone B2) asexual blood stage parasites; assay: P. falciparum Dd2 asexual blood stage SYBR Green-I 72 h proliferation assay (qHTS); format: cell-based, Plasmodium falciparum; details: SYBR Green 72 h; for AC50: Plasmodium falciparum, DD2, 72 h
[4] = system: P. falciparum Dd2 Cytb V259L; assay: SYBR Green ABS proliferation assay, NCGC00473217 selected clone F06; format: cell-based, Plasmodium falciparum; details: Plasmodium falciparum
Summary of the method: (§2)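 Asexual blood-stage proliferation of cytochrome b-mutant Dd2 clones after 72 h compound exposure at 37 °C in low-oxygen gas, quantified as control-normalized SYBR Green-I fluorescence; differences tested by two-sided t-test.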

[5] = system: luciferase-expressing P. berghei liver stage parasites in HepG2 cells; assay: Inhibition of liver-stage development assay (ILSDA), Method 2 (WRAIR, 96-well); format: cell-based, Plasmodium berghei; details: for AC50: Plasmodium berghei
[6] = system: P. falciparum Dd2 Cytb A122D; assay: SYBR Green ABS proliferation assay, NCGC00473217 selected clone F12; format: cell-based, Plasmodium falciparum; details: Plasmodium falciparum
Summary of the method: as §2

[7] = system: P. falciparum Dd2 Cytb F123L; assay: SYBR Green ABS proliferation assay, NCGC00473217 selected clone G08; format: cell-based, Plasmodium falciparum
Summary of the method: as §2

[8] = HepG2 mammalian toxicity, CellTiter-Glo, 48 h; details: human, HepG2 cells, HepG2 AC50 (mammalian cellular toxicity), 48 h compound exposure
[9] = system: HepG2 cells; assay: HepG2 mammalian toxicity, CellTiter-Glo, 48 h; details: 48 h compound exposure
[10] = system: P. falciparum Dd2 Cytb G131S; assay: SYBR Green ABS proliferation assay, NCGC00374598 selected clone C11; format: cell-based, Plasmodium falciparum; details: Plasmodium falciparum
Summary of the method: as §2

[11] = Parallel artificial membrane permeability assay (PAMPA); format: in vitro ADME; details: for PAMPA pH7.4: pH 7.4
Method: as §1

[12] = in vitro; details: human, HepG2-A16-CD81EGFP cells, uninfected
[13] = system: P. falciparum Dd2-B2 parasites; assay: In vitro resistance selection under constant drug pressure; format: cell-based, Plasmodium falciparum
Method: Recently cloned P. falciparum Dd2-B2 parasites, cultured in duplicate flasks each harboring an inoculum of 2 × 10^9 parasites, were subjected to constant drug pressure from NCGC00473217 at 5 × AC50 or NCGC00374598 at 3 × AC50. […] Clones were then obtained by limiting dilution and three to four clones from each flask were expanded for profiling and sequencing.
Fresh uninfected RBCs (0.5% hematocrit) were added on day 7 and media was changed every other day. […] Resistant parasites were maintained under drug media at a volume of 50 mL until a high parasitemia (> 5%) was achieved. Aliquots of the bulk resistant cultures were frozen in cryovials before cloning by limiting dilution in 96-well plates (seeded at 0.25 or 0.5 parasites/well)[70]. After 3 weeks of cloning, we screened for positive wells by flow cytometry with SYBR Green-stained cells. […] Parasites were harvested by saponin lysis at the trophozoite stage and genomic DNA was extracted using the QIAamp DNA Blood Midi Kit (Qiagen, Germantown, MD)[71].

[14] = system: P. berghei-ANKA-GFP-LucCON liver stage parasites in HepG2-A16-CD81EGFP cells; assay: P. berghei liver stage Pb-Luc assay, Method 1 (UCSD, 1536-well); format: cell-based, Plasmodium berghei; details: Plasmodium berghei
[15] = WT Dd2-B2, read-out: AC50 Log[M] ± SD, Dd2-B2 (parental line) (converted)
[16] = approximate value in μM, read-out: AC50 [μM], Dd2-B2 (parental line) (converted)
[17] = DD2, NCGC00473217 selected clone F06, read-out: AC50 [μM], Cytb V259L (converted)
[18] = DD2, NCGC00473217 selected clone, read-out: AC50 Log[M] ± SD, Cytb V259L (converted)
[19] = HepG2, 48 h, 48 h, firefly luciferase reporter P. berghei line, read-out: ILSDA AC50
[20] = DD2, NCGC00473217 selected clone F12, read-out: AC50 [μM], Cytb A122D (converted)
[21] = DD2, NCGC00473217 selected clone, read-out: AC50 Log[M] ± SD, Cytb A122D (converted)
[22] = Plasmodium falciparum, DD2, NCGC00473217 selected clone G08, highest concentration 29 µM, read-out: AC50 [μM], Cytb F123L (converted)
[23] = DD2, NCGC00374598 selected clone C11, read-out: AC50 [μM], Cytb G131S (converted)
[24] = DD2, NCGC00374598 selected clone, read-out: AC50 Log[M] ± SD, Cytb G131S (converted)

Compound | solubility [1] [µg/mL] | half-life [2] [min] | AC50 [3, 15] [M] | AC50 [3, 16] [M] | AC50 [4, 17] [µM] | AC50 [4, 18] [µM] | AC50 [5, 19] [nM] | AC50 [6, 20] [µM] | AC50 [6, 21] [µM] | AC50 [7, 22] [µM] | AC50 [10, 23] [µM] | AC50 [10, 24] [µM] | PAMPA pH7.4 [11] | also measured
CCCN1C(c2ccccc2)=NS(=O)(=O)c2cc(NC(=O)c3cccs3)ccc21 [NCGC00532332] | < 1 | 22.6 | 5.89e-07 | 5.86e-07 | 4.31 | 4.27 | 39 | 1.5 | 1.51 | 2 | 0.861 | 0.851 | 714 1e-6 cm/s | Aqueous Solubility [1]: poor aqueous solubility; RLMS T1/2 [2]: favorable; AC50 [μM], Dd2-B2 (parental line) ([3]; approximate value in μM): sub-micromolar; AC50 ([5]; HepG2, 48 h, 48 h, read-out: ILSDA AC50 (Method 2)): < 50 nM; AC50 ([7]; Plasmodium falciparum, DD2, NCGC00473217 selected clone, read-out: AC50 Log[M] ± SD, Cytb F123L (converted)): 2 µM; AC50 at 48 h [8]: > 20000 nM; HepG2 AC50 (mammalian cellular toxicity) [9]: Neither compound was cytotoxic; PAMPA permeability [11]: high permeability; also recorded: favorable
CCCN1C(CC(C)C)=NS(=O)(=O)c2cc(NC(=O)c3cccs3)ccc21 [NCGC00473217] | < 1 | 5 | 2.19e-07 | 2.19e-07 | 1.18 | 1.17 | 112 | 2.82 | 2.82 | > 29 | 0.68 | 0.676 | 222 1e-6 cm/s | viability at 66 h [12]: 106%; AC50 ([4]; DD2, Suppl Table 6, read-out: AC50 (mM), Dd2 Cytb V259L): 1.18 µM; Activity direction (Decrease / Inactive) ([5]; P. berghei liver stage, Method 2, dose response): Decrease; AC50 ([5]; HepG2, P. berghei liver stage, Method 2, dose response, read-out: Log AC50 (converted)): 112 nM; AC50 ([6]; DD2, Suppl Table 6, read-out: AC50 (mM), Dd2 Cytb A122D): 2.82 µM; AC50 [μM], Cytb F123L ([7]; NCGC00473217 selected clone G08, highest concentration 29 µM): greater than the maximum concentration tested; AC50 ([7]; NCGC00473217 selected clone G08, highest concentration 29 µM, read-out: AC50 [μM], Cytb F123L (converted)): > 29 µM; AC50 ([7]; Plasmodium falciparum, DD2, Suppl Table 6, read-out: AC50 (mM), Dd2 Cytb F123L): > 29 µM; IC50 shift, F123L clone ([7]; versus parental): > 500 fold; AC50 ([10]; DD2, Suppl Table 6, read-out: AC50 (mM), Dd2 Cytb G131S): 0.676 µM; Recrudescence under pressure ([13]; 2 × 10^9 parasites, 5 × AC50 (NCGC00473217) or 3 × AC50 (NCGC00374598)): 14 to 17 days; AC50 increase of selected clones ([13]; clones from selections with the same compound): 10 to 60 fold; AC50 ([14]; UCSD, read-out: liver stage AC50 (Method 1)): 3 nM; inhibition at 1 µM ([14]; 1 μM): > 90%; inhibition at 3 µM ([14]; 3 μM): > 95%
